Results taken from patent US10828301B2, “2,4-pyrimidinediamine compounds and their uses” (Rigel Pharmaceuticals, Inc, priority 2002, dated 2020).

Columns and labels:
[1] = tested on: cultured human mast cells (CHMC); assay: CHMC low cell density IgE activation: tryptase and LTC4 assays; format: cell-based; conditions: read-out: CHMC anti-IgE Tryptase
Procedure, shortened: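 Cultured human mast cells at low density (1000-1500 per well) rested 1 h at 37° C, then stimulated with anti-IgE for 30 min at 37° C. Supernatant tryptase measured with fluorogenic substrate (30 min, room temperature); LTC4 quantified by ELISA on diluted supernatant.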

[2] = tested on: cultured human mast cells (CHMC); assay: CHMC low cell density ionomycin activation: tryptase assay; format: cell-based; conditions: read-out: CHMC Ionomycin Tryptase
[3] = Homo sapiens, Mast cell, Low Density CHMC, anti-IgE activation, tryptase readout
[4] = Homo sapiens, Mast cell, Low Density CHMC, ionomycin activation, tryptase readout

Row | IC50 [1, 3] [µM] | IC50 [2, 4] [µM] | SMILES | also measured
1 | 4.01 | > 10 | COC(=O)c1cc2cc(Nc3nc(Nc4ccc5c(c4)OCCO5)ncc3F)ccc2o1 [Compound R926485, N2-(3,4-Ethylenedioxyphenyl)-N4-(2-methoxycarbonylbenzofuran-5-yl)-5-fluoro-2,4-pyrimidinediamine] | 
2 | > 10 | > 10 | COc1cc(-c2ccccc2)c(C)cc1Nc1ncc(Br)c(Nc2cc(C)c(-c3ccccc3)cc2OC)n1 [Compound R925801, N2,N4-Bis(2-methoxy-5-methyl-4-phenylphenyl)-5-bromo-2,4-pyrimidinediamine] | 
3 | 5.28 | > 10 | CNCCNC(=O)C=Nc1cccc(Nc2ncc(F)c(Nc3cccc(O)c3)n2)c1 [Compound R950225, 5-Fluoro-N4-(3-hydroxyphenyl)-N2-[3-[(N-methylamino)ethylamino]carbonylmethyleneaminophenyl]-2,4-pyrimidinediamine] | 
4 | > 10 | > 10 | CCNC(=O)Nc1ccc(Nc2ncc(F)c(Nc3ccc(NC(=O)NCC)cc3)n2)cc1 [Compound R945040, N2,N4-Bis[4-(ethylaminocarbonylamino)phenyl]-5-fluoro-2,4-pyrimidinediamine] | 
5 | > 10 | > 10 | CC(Nc1nc(Nc2cccc(O)c2)ncc1Br)c1ccc(F)cc1 (racemic) [Compound R935023, (±)-5-Bromo-N4-[1-(4-fluorophenyl)ethyl]-N2-(3-hydroxyphenyl)-2,4-pyrimidinediamine] | 
6 | 0.98 | > 10 | CNC(=O)C=Nc1cccc(Nc2ncc(F)c(Nc3cccc(NCCO)c3)n2)c1 [Compound R950233, 5-Fluoro-N4-[3-(2-hydroxyethylamino)phenyl]-N2-[3-(N-methylamino)carbonylmethyleneaminophenyl]-2,4-pyrimidinediamine] | 
7 | 1.1 | > 10 | CCOC(=O)c1cc2cccc(Nc3cc(Nc4cccc(O)c4)c(F)cn3)c2[nH]1 [Compound R926814, N2-(2-Ethoxycarbonylindol-7-yl)-5-fluoro-N4-(3-hydroxyphenyl)-2,4-pyridinediamine] | 
8 | 4.07 | > 10 | Cc1cc(CNc2nc(Nc3cccc(O)c3)ncc2F)c(C)o1 [Compound R945151, N4-[(2,5-Dimethyl-3-furyl)methyl]-5-fluoro-N2-(3-hydroxyphenyl)-2,4-pyrimidinediamine] | 
9 | 10 | > 10 | Oc1cccc(Nc2nc(NCc3ccc4c(c3)OCCO4)ncc2F)c1 [Compound R945168, N2-(2,3-Dihydro-1,4-benzodioxin-6-ylmethyl)-5-fluoro-N4-(3-hydroxyphenyl)-2,4-pyrimidinediamine] | 
10 | 1.77 | > 10 | CCOC(=O)c1cccc(Nc2ncc(F)c(Nc3ccc4c(c3)OCCO4)n2)c1 [Compound R925745, N2-(3-Ethoxycarbonylphenyl)-N4-(3,4-ethylenedioxyphenyl)-5-fluoro-2,4-pyrimidinediamine] | 
11 | 1.03 | > 10 | Nc1cccc(Nc2ncc(F)c(Nc3cccc(O)c3)n2)c1 [Compound R950227, N2-(3-Aminophenyl)-5-fluoro-N4-(3-hydroxyphenyl)-2,4-pyrimidinediamine] | 
12 | 0.667 | > 10 | CC(C)(C)c1cccc(Nc2ncc(F)c(Nc3cccc(O)c3)n2)c1 [Compound R940257, N2-(3-tert-Butylphenyl)-5-fluoro-N4-(3-hydroxyphenyl)-2,4-pyrimidinediamine] | 
13 | 0.401 | 6.82 | Cc1cc(Nc2ncc(F)c(Nc3cccc(C(C)(C)C)c3)n2)cc(Cl)c1O [Compound R940271, N4-(3-tert-Butylphenyl)-N2-(3-chloro-4-hydroxy-5-methylphenyl)-5-fluoro-2,4-pyrimidinediamine] | 
14 | > 10 | > 10 | Fc1cc(Nc2ncc(F)c(Nc3ccc4c(c3)OCCO4)n2)cc(C(F)(F)F)c1 [Compound R926894, N4-(3,4-Ethylenedioxyphenyl)-5-fluoro-N2-(3-fluoro-5-trifluoromethylphenyl)-2,4-pyrimidinediamine] | 
15 | 2.5 | > 10 | CCOC(=O)c1cc2cc(Nc3ncc(F)c(Nc4ccc(C(C)(C)C)cc4)n3)ccc2[nH]1 [Compound R926474, N4-(4-tert-Butylphenyl)-N2-(2-ethoxycarbonylindol-5-yl)-5-fluoro-2,4-pyrimidinediamine] | 
16 | 0.63 | > 10 | CN1C(=O)COc2ccc(Nc3ncc(F)c(Nc4cccc(O)c4)n3)cc21 [Compound R908703, 5-Fluoro-N4-(3-hydroxyphenyl)-N2-(N-methyl-1,4-benzoxazine-3-on-6-yl)-2,4-pyrimidinediamine] | 
17 | 0.95 | > 10 | N#Cc1cccc(Nc2ncc(F)c(Nc3cccc(C#N)c3)n2)c1 [Compound R945051, N2,N4-Bis(3-cyanophenyl)-5-fluoro-2,4-pyrimidinediamine] | 
18 | > 10 | > 10 | O=C(O)c1ccc(Nc2ncc(F)c(Nc3ccc(C(=O)O)cc3)n2)cc1 [Compound R945037, N2,N4-Bis(4-carboxyphenyl)-5-fluoro-2,4-pyrimidinediamine] | 
19 | 0.845 | > 10 | Oc1c(Cl)cc(Nc2ncc(F)c(Nc3cc(Cl)c(O)c(Cl)c3)n2)cc1Cl [Compound R940215, N2,N4-Bis-(3,5-dichloro-4-hydroxyphenyl)-5-fluoro-2,4-pyrimidinediamine] | 
20 | 6 | > 10 | Oc1ccc(-c2cnc(Nc3ccc4c(c3)OCCO4)nc2Nc2ccc3c(c2)OCCO3)cc1 [Compound R925816, N2,N4-Bis(3,4-ethylenedioxyphenyl)-5-(4-hydroxyphenyl)-2,4-pyrimidinediamine] | 
21 |  |  | COC(=O)c1ccc(CNc2nc(Nc3cccc(O)c3)ncc2C#N)cc1 [Compound R925821, 5-Cyano-N2-(3-hydroxyphenyl)-N4-(methoxycarbonylbenzyl)-2,4-pyrimidinediamine] | IC50 ([1]; Low Density CHMC, anti-IgE activation, tryptase readout): > 10 µM; IC50 ([2]; Low Density CHMC, ionomycin activation, tryptase readout): > 10 µM
22 | > 10 | > 10 | CCNC(=O)Nc1cccc(Nc2ncc(F)c(Nc3cccc(NC(=O)NCC)c3)n2)c1 [Compound R945045, N2,N4-Bis[3-(ethylaminocarbonylamino)phenyl]-5-fluoro-2,4-pyrimidinediamine] | 
23 | 0.445 | > 10 | CCOC(=O)c1cc2cc(Nc3ncc(F)c(Nc4cccc(O)c4)n3)ccc2[nH]1 [Compound R926615, N2-(2-Ethoxycarbonylindol-5-yl)-5-fluoro-N4-(3-hydroxyphenyl)-2,4-pyrimidinediamine] | 
24 |  |  | CCNC(=O)Oc1cccc(Nc2ncc(F)c(Nc3cccc(O)c3)n2)c1 [Compound R926928, N2-[3-[(N-Ethylamino)carbonyloxy]phenyl]-5-fluoro-N4-(3-hydroxyphenyl)-2,4-pyrimidinediamine] | IC50 ([1]; Homo sapiens, Mast cell): 0.575 µM; IC50 ([2]; Homo sapiens, Mast cell): > 10 µM
25 | 2.1 | > 10 | Fc1cnc(Nc2ccc3c(c2)OCO3)nc1Nc1ccc2c(c1)OCO2 [Compound R925776, N2,N4-Bis(3,4-methylenedioxyphenyl)-5-fluoro-2,4-pyrimidinediamine] | 
26 | 2.53 | > 10 | CCCCOc1ccc(Nc2cc(Nc3ccc4c(c3)OCCO4)c(F)cn2)cc1 [Compound R920666, N2-(4-n-Butyloxyphenyl)-N4-(3,4-ethylenedioxyphenyl)-5-fluoro-2,4-pyridinediamine] | 
